Literature values, collected in US7666858B2, “Pharmaceutical composition for treatment of phimosis using topical corticosteroid” (Apsen Farmaceutica S.A., priority 2000, dated 2010).

Assays:
[1] = Lindhagen 1996

C[C@H]1C[C@H]2[C@@H]3CCC4=CC(=O)C=C[C@]4(C)[C@@]3(F)[C@@H](O)C[C@]2(C)[C@@]1(O)C(=O)CO [Betamethasone]
solubility in alcohol (alcohol): partially alcohol-soluble | solubility in water (water): water-insoluble

CCC(=O)O[C@]1(C(=O)CCl)[C@@H](C)C[C@H]2[C@@H]3CCC4=CC(=O)C=C[C@]4(C)[C@@]3(F)[C@@H](O)C[C@@]21C [clobetasol propionate]
success [1]: 70%
